Measured values reported in patent publication US20040148991A1, “Method and apparatus for dissolving urea” (priority 2003, published 2004).

Experiment: Urea dissolution time in water at 50/50 wt/wt urea/water concentration
Assay type: physicochemical
Conditions: for dissolution time faster than control test: versus control 12 minutes
Method: The next step of the method of the present invention comprises mixing the urea prills and the water so as to form a mixture. After the mixture is formed, the mixture of urea and water is then allowed to stand for an amount of time sufficient to allow the temperature of the mixture to reach a predetermined temperature. In a preferred embodiment, the predetermined temperature is between about 19° C. and 24° C., and more preferably, about 23° C. The amount of time required for the temperature of the mixture to reach the predetermined temperature depends upon the amount of mixture in mixing container 12. During this time period in which the mixture is allowed to stand, the temperature of the mixture is monitored with temperature sensor 20. When the temperature of the mixture reaches the predetermined temperature, mixing of the urea/water mixture is resumed and continues until the urea completely dissolves in the water. The time for urea dissolution is measured from the moment the mixing resumes to the point in time when the urea becomes completely dissolved in the water. The solution is outputted from mixing container 12 via outlet 14.
A series of tests were conducted in order to determine the urea dissolution time when various amounts of water were initially added to the urea and wherein additional amounts of water were subsequently added to attain the 50/50 wt/wt urea/water concentration. A control test was first conducted in order to obtain reference data. About 40 grams of urea prills were mixed with an equal amount of water, i.e. 40 grams (or milliliters). The mixture was not allowed to stand for any amount of time. Thus, the mixing step began as soon as 40 grams of urea and 40 grams of water were added to mixing container 12. The time for the urea to completely dissolve was about twelve (12) minutes and is indicated by numeral 100 in the curve of FIG. 2.
In the first test, about 40 grams of urea and 10 grams of water were deposited into mixing container 12. The mixture was then mixed or stirred, and allowed to stand until the temperature of the mixture reached about room temperature or about 23° C. Next, an amount of water necessary to achieve a urea/water concentration of 50/50 wt/wt was added to the mixture. Since the initial amount of water was 10 grams , 30 grams of water were added to the mixture to achieve the desired 50/50 wt/wt concentration. The urea and water were mixed again. The urea completely dissolved in eight (8) minutes after the 50/50 wt/wt urea/water concentration was achieved. This is indicated by numeral 102 on the curve in FIG. 2. The dissolution time was about 33% faster than the control test dissolution time of twelve (12) minutes.
In the next test, about 40 grams of urea and 15 grams of water were deposited into mixing container 12. The mixture was then mixed or stirred, and allowed to stand until the temperature of the mixture reached about room temperature or about 23° C. Next, an amount of water necessary to achieve a 50/50 wt/wt urea/water concentration was added to the mixture. Since the initial amount of water was 15 grams, 25 grams of water were added to the mixture to achieve the desired 50/50 wt/wt urea/water concentration. The urea and water were mixed again. The urea completely dissolved in seven (7) minutes after the 50/50 wt/wt urea/water concentration was achieved. This is indicated by numeral 104 on the curve in FIG. 2. The dissolution time was about 42% faster than the control test dissolution time of twelve (12) minutes.
In the next test, about 40 grams of urea and 20 grams of water were deposited into mixing container 12. The mixture was then mixed or stirred, and allowed to stand until the temperature of the mixture reached about room temperature or about 23° C. Next, an amount of water necessary to achieve a urea/water concentration of 50/50 wt/wt was added to the mixture. […]

SMILES: NC(N)=O [urea]
- dissolution time faster than control test (Test 1: 10 g water initially): about 33%
- time for the urea to completely dissolve (Test 1: 40 g urea + 10 g water initially, stand until about 23° C., then 30 g water added to 50/50 wt/wt): 8 min
- dissolution time faster than control test (Test 2: 15 g water initially): about 42%
- time for the urea to completely dissolve (Test 2: 40 g urea + 15 g water initially, stand until about 23° C., then 25 g water added to 50/50 wt/wt): 7 min
- dissolution time faster than control test (Test 3: 20 g water initially): about 58%
- time for the urea to completely dissolve (Test 3: 40 g urea + 20 g water initially, stand until about 23° C., then 20 g water added to 50/50 wt/wt): 5 min
- dissolution time faster than control test (Test 4: 25 g water initially): about 67%
- time for the urea to completely dissolve (Test 4: 40 g urea + 25 g water initially, stand until about 23° C., then 15 g water added to 50/50 wt/wt): 4 min
- time for the urea to completely dissolve (Test 5: 40 g urea + 40 g water, mixed, stand until about 23° C., mixed again): 3 min
- dissolution time faster than control test (Test 5: 40 g water initially): about 75%
- time for the urea to completely dissolve (control test: 40 g urea prills + 40 g water, mixture not allowed to stand): ~12 min
